Test results reported in patent EP0561850B1, “7-SUBSTITUTED-6-FLUORO-1,4-DIHYDRO-4-OXO-QUINOLINE-3-CARBOXYLIC ACID COMPOUNDS USEFUL AS ANTIBACTERIAL AGENTS” (priority 1990, dated 1992).
Values after ≈ are worked out from the molar mass of the structure shown. Read-outs that look alike come from different tables or passages of the source.

Legend:
Assay in all cases: Microbroth dilution (MHB) method, NCCLS M7-A2
Sa 127M = format: cell-based, Staphylococcus aureus; settings: inoculum 5 x 10^5 cfu/ml, 35 °C/18 hr
Description: (§1) The test organisms were obtained from ATCC and clinical laboratories. The 96-well microtitre plates containing […] of serially diluted test compounds in Mueller Hinton Broth (MHB) (conc. range 64-0.03 µg/ml) were inoculated with […] of bacterial suspension in MHB so that an inoculum size of 5 x 10^5 cfu/ml was achieved.
(§2) EC. (S- 63): Eschericia coli Ecl. (S- 130): Enterobacter cloacae Pa. (S- 67): Pseudomonas aeruginosa Kp. (S- 80): Klebsiella pneumoniae Pr.
(§3) Microbroth Dilution (MHB) method; Inoculum, 5 x 10^5 cfu/ml; Incubation 35 °C/18 hr

[1] = system: Providencia rettgeri S-121; format: cell-based; settings: 35 °C/18 hr
Description: as §1, §2, §3

[2] = system: Enterobacter cloacae S-130; format: cell-based; settings: 35 °C/18 hr
Description: as §1, §2, §3

Eschericia coli S-63 = format: cell-based; settings: Ec S-63, inoculum 5 x 10^5 cfu/ml, 35 °C/18 hr
Description: as §1, §2, §3

[3] = system: Pseudomonas aeruginosa S-67; format: cell-based; settings: Pa S-67, MHB, inoculum 5 x 10^5 cfu/ml, 35 °C/18 hr
Description: as §1, §2, §3

[4] = system: Staphylococcus aureus S-127; format: cell-based; settings: 35 °C/18 hr
Description: as §1, §2, §3

[5] = system: Klebsiella pneumoniae S-80; format: cell-based; settings: Kp S-80, MHB, inoculum 5 x 10^5 cfu/ml, 35 °C/18 hr
Description: as §1, §2, §3

[6] = Staphylococcus aureus, read-out: MIC
[7] = Providencia rettgeri, S121, Pr S-121, inoculum 5 x 10^5 cfu/ml, read-out: MIC
[8] = Enterobacter cloacae, S130, Ecl S-130, inoculum 5 x 10^5 cfu/ml, read-out: MIC
[9] = Pseudomonas aeruginosa, S67, read-out: MIC
[10] = Staphylococcus aureus, S127, Sa S-127, inoculum 5 x 10^5 cfu/ml, read-out: MIC
[11] = Klebsiella pneumoniae, S80, read-out: MIC
[12] = Pr S-121, inoculum 5 x 10^5 cfu/ml
[13] = Ecl S-130, inoculum 5 x 10^5 cfu/ml
[14] = Sa S-127, inoculum 5 x 10^5 cfu/ml

Molecule | MIC (Sa 127M; [6]) [µg/mL] | MIC [1, 7] [µg/mL] | MIC [2, 8] [µg/mL] | MIC (Eschericia coli S-63; read-out: MIC) [µg/mL] | MIC [3, 9] [µg/mL] | MIC [4, 10] [µg/mL] | MIC [5, 11] [µg/mL] | MIC (Sa 127M) | MIC [1, 12] | MIC [2, 13] | MIC (Eschericia coli S-63) | MIC [3] [µg/mL] | MIC [4, 14] | MIC [5]
O=C(O)c1cn(C2CC2)c2c(F)c(N3CCC(n4cc(-c5ccccc5)nn4)C3)c(F)cc2c1=O (stereo not shown) [Example 46, 1-cyclopropyl-6,8-difluoro-7-[3-(4-phenyl-1,2,3-triazol-1-yl)-pyrrolidin-1-yl]-1,4-dihydro-4-oxo-quinoline-3-carboxylic acid] | 0.015 (≈ 0.0314 µM) | 0.015 (≈ 0.0314 µM) | 1 (≈ 2.09 µM) | 0.25 (≈ 0.524 µM) | 32 (≈ 67 µM) | 0.015 (≈ 0.0314 µM) | 1 (≈ 2.09 µM) | – | – | – | – | – | – | –
N,N,N-Trimethyl-N-(2-hydroxyethyl) ammonium 1- cyclopropyl-6,8-difluoro-7-[3-(4-methyl-1,2,3-triazol-1-yl)pyrrolidin-1-yl]-1,4-dihydro-4-oxo-quinoline-3-carboxylate [Example 35] | – | – | – | – | – | – | – | .03 µg/mL | .25 µg/mL | .5 µg/mL | .25 µg/mL | 4 | ≤.015 µg/mL | .25 µg/mL
COc1c(N2CCC(n3cc(C)nn3)C2)c(F)cc2c(=O)c(C(=O)O)cn(C3CC3)c12 (stereo not shown) [Example 33] | ≤ 0.015 | 2 (≈ 4.68 µM) | 1 (≈ 2.34 µM) | 0.12 (≈ 0.281 µM) | 8 (≈ 18.7 µM) | ≤ 0.015 | 1 (≈ 2.34 µM) | – | – | – | – | – | – | –
Cc1cn(C2CCN(c3c(F)cc4c(=O)c(C(=O)O)cn5c4c3OC[C@@H]5C)C2)nn1 (single isomer, unassigned; (-)) [Example 39] | 0.12 (≈ 0.29 µM) | 1 (≈ 2.42 µM) | 1 (≈ 2.42 µM) | 0.25 (≈ 0.605 µM) | 8 (≈ 19.4 µM) | 0.03 (≈ 0.0726 µM) | 1 (≈ 2.42 µM) | – | – | – | – | – | – | –
Cc1c(F)c(N2CCC(n3cc(-c4ccccc4)nn3)C2)c(F)c2c1c(=O)c(C(=O)O)cn2C1CC1 (stereo not shown) [Example 48, 1-cyclopropyl-6,8-difluoro-5-methyl-7-[3(4-phenyl-1,2,3-triazol-1-yl)-pyrrolidin-1-yl]-1,4-dihydro-4-oxo-quinoline-3-carboxylic acid] | 0.015 (≈ 0.0305 µM) | 0.015 (≈ 0.0305 µM) | 4 (≈ 8.14 µM) | 1 (≈ 2.03 µM) | 16 (≈ 32.6 µM) | 0.015 (≈ 0.0305 µM) | 4 (≈ 8.14 µM) | – | – | – | – | – | – | –
Cc1nnn(C2CCN(c3c(F)cc4c(=O)c(C(=O)O)cn(C5CC5)c4c3F)C2)c1C (stereo not shown) [Example 26, 1-Cyclopropyl-6,8-difluoro-7[3-(4,5-dimethyl-1,2,3-triazol-1-yl)pyrrolidin-1-yl]-1,4-dihydro-4-oxo-quinoline-3-carboxylic acid] | 0.06 (≈ 0.14 µM) | 1 (≈ 2.33 µM) | 2 (≈ 4.66 µM) | 0.25 (≈ 0.582 µM) | 8 (≈ 18.6 µM) | 0.03 (≈ 0.0699 µM) | 1 (≈ 2.33 µM) | – | – | – | – | – | – | –
NCc1cnnn1C1CCN(c2c(F)cc3c(=O)c(C(=O)O)cn(C4CC4)c3c2F)C1 (stereo not shown) [Example 44] | – | 1 (≈ 2.32 µM) | 0.25 (≈ 0.581 µM) | 0.5 (≈ 1.16 µM) | 8 (≈ 18.6 µM) | 25 (≈ 58.1 µM) | 1 (≈ 2.32 µM) | – | – | – | – | – | – | –
Nc1c(F)c(N2CCC(n3cncn3)C2)c(F)c2c1c(=O)c(C(=O)O)cn2C1CC1 (stereo not shown) [Example 28, 5-Amino-1-cyclopropyl-6,8-difluoro-7-[3-(1,2,4-triazol-1-yl)pyrrolidin-1-yl]-1,4-dihydro-4-oxo-quinoline-3-carboxylic acid] | – | – | – | 0.12 (≈ 0.288 µM) | – | ≤ 0.015 | – | – | – | – | – | – | – | –
O=C(O)c1cn(C2CC2)c2c(F)c(N3CCC(n4nncc4C(=O)O)C3)c(F)cc2c1=O (stereo not shown) [Example 43, 1-Cyclopropyl-6,8-difluoro-7-(3-(5-carboxy-1,2,3-triazol-1-yl)-pyrrolidin-1-yl)-1,4-dihydro-4-oxo-quinoline-3-carboxylic acid] | 8 (≈ 18 µM) | 32 (≈ 71.8 µM) | 32 (≈ 71.8 µM) | 16 (≈ 35.9 µM) | > 32 | 8 (≈ 18 µM) | 32 (≈ 71.8 µM) | – | – | – | – | – | – | –
O=C(O)c1cn(C2CC2)c2c(F)c(N3CCC(n4cncn4)C3)c(F)cc2c1=O (stereo not shown) [Example 29, 1-Cyclopropyl-6,8-difluoro-7-[3-(1,2,4-triazol-1-yl)pyrrolidin-1-yl]-1,4-dihydro-4-oxo-quinoline-3-carboxylic acid] | 0.06 (≈ 0.149 µM) | 0.25 (≈ 0.623 µM) | 0.25 (≈ 0.623 µM) | 0.12 (≈ 0.299 µM) | 4 (≈ 9.97 µM) | 0.03 (≈ 0.0747 µM) | 0.5 (≈ 1.25 µM) | – | – | – | – | – | – | –
C[C@H]1COc2c(N3CCC(n4ccnn4)C3)c(F)cc3c(=O)c(C(=O)O)cn1c23 (single isomer, unassigned; (-)) [Example 38] | 0.5 (≈ 1.25 µM) | 1 (≈ 2.5 µM) | 1 (≈ 2.5 µM) | 0.25 (≈ 0.626 µM) | 8 (≈ 20 µM) | 0.12 (≈ 0.3 µM) | 1 (≈ 2.5 µM) | – | – | – | – | – | – | –
COc1c(N2CC[C@H](n3ccnn3)C2)c(F)cc2c(=O)c(C(=O)O)cn(C3CC3)c12 [Example 31, 1-Cyclopropyl-6-fluoro-7-[3S-(1,2,3-triazol-1-yl)pyrrolidin-1-yl]-8-methoxy-1,4-dihydro-4-oxo-quinoline-3-carboxylic acid] | ≤ 0.015 | 0.5 (≈ 1.21 µM) | 0.5 (≈ 1.21 µM) | 0.12 (≈ 0.29 µM) | 2 (≈ 4.84 µM) | ≤ 0.015 | 0.25 (≈ 0.605 µM) | – | – | – | – | – | – | –
Cc1cn(C2CCN(c3c(F)c(N)c4c(=O)c(C(=O)O)cn(C5CC5)c4c3F)C2)nn1 (stereo not shown) [Example 25, 5-Amino-1-cyclopropyl-6,8-difluoro-7-[3-(4-methyl-1,2,3-triazol-1-yl)pyrrolidin-1-yl]-1,4-dihydro-4-oxo-quinoline-3-carboxylic acid] | 0.03 (≈ 0.0697 µM) | 0.25 (≈ 0.581 µM) | 0.25 (≈ 0.581 µM) | 0.06 (≈ 0.139 µM) | 2 (≈ 4.65 µM) | ≤ 0.015 | 0.25 (≈ 0.581 µM) | – | – | – | – | – | – | –
N,N,N-Trimethyl-N-(2-hydroxyethyl)ammonium-1-cyclopropyl-6,8-difluoro-7-[3-(1,2,4-triazol-1-yl)pyrrolidin-1-yl]-1,4-dihydro-4-oxo-quinoline-3-carboxylate [Example 37] | – | – | – | – | – | – | – | .25 µg/mL | 1 µg/mL | 2 µg/mL | .5 µg/mL | 8 | .06 µg/mL | 1 µg/mL
O=C(O)c1cn(C2CCN(c3c(F)cc4c(=O)c(C(=O)O)cn(C5CC5)c4c3F)C2)nn1 (stereo not shown) [Example 45, 1-cyclopropyl-6,8-difluoro-7-[3-(4-carboxyl-1,2,3-triazol-1-yl)pyrrolidin-1-yl]-1,4-dihydro-4-oxo-quinoline-3-carboxylic acid] | 1 (≈ 2.25 µM) | – | – | 0.25 (≈ 0.561 µM) | – | – | – | – | – | – | – | – | – | –
COc1c(N2CCC(n3ccnn3)C2)c(F)cc2c(=O)c(C(=O)O)cn(C3CC3)c12 (stereo not shown) [Example 32, 1-Cyclopropyl-6-fluoro-7-[3-(1,2,3-triazol-1-yl)pyrrolidin-1-yl]-8-methoxy-1,4-dihydro-4-oxo-quinoline-3-carboxylic acid] | ≤ 0.03 | 0.12 (≈ 0.29 µM) | 0.5 (≈ 1.21 µM) | 0.12 (≈ 0.29 µM) | 4 (≈ 9.68 µM) | ≤ 0.03 | 0.25 (≈ 0.605 µM) | – | – | – | – | – | – | –
O=C(O)c1cn(C2CC2)c2c(F)c(N3CCC(n4ncnn4)C3)c(F)cc2c1=O (stereo not shown) [Example 51, 1-Cyclopropyl-6,8-difluoro-7-[3-(1,2,3,4-tetrazol-2-yl)pyrrolidin-1-yl]-1,4-dihydro-4-oxo-quinoline-3-carboxylic acid] | ≤ 0.03 | 0.12 (≈ 0.298 µM) | – | 0.06 (≈ 0.149 µM) | 2 (≈ 4.97 µM) | ≤ 0.03 | 0.12 (≈ 0.298 µM) | – | – | – | – | – | – | –
C[C@H]1COc2c(N3CCC(n4cncn4)C3)c(F)cc3c(=O)c(C(=O)O)cn1c23 (single isomer, unassigned; (-)) [Example 40] | 0.5 (≈ 1.25 µM) | 0.5 (≈ 1.25 µM) | 1 (≈ 2.5 µM) | 1 (≈ 2.5 µM) | 8 (≈ 20 µM) | 1 (≈ 2.5 µM) | 1 (≈ 2.5 µM) | – | – | – | – | – | – | –
COc1c(N2CCC(n3cncn3)C2)c(F)cc2c(=O)c(C(=O)O)cn(C3CC3)c12 (stereo not shown) [Example 34, 1-Cyclopropyl-6-fluoro-7-[3-(1,2,4-triazol-1-yl)pyrrolidin-1-yl]-8-methoxy-1,4-dihydro-4-oxo-quinoline-3-carboxylic acid] | – | 0.5 (≈ 1.21 µM) | 0.5 (≈ 1.21 µM) | 0.5 (≈ 1.21 µM) | 8 (≈ 19.4 µM) | 0.5 (≈ 1.21 µM) | 0.5 (≈ 1.21 µM) | – | – | – | – | – | – | –
O=C(O)c1cn(C2CC2)c2c(F)c(N3CCC(n4cnnn4)C3)c(F)cc2c1=O (stereo not shown) [Example 52, 1-Cyclopropyl-6,8-fluoro-7-[3-(1,2,3,4-tetrazol-1-yl)pyrrolidin-1-yl]-1,4-dihydro-4-oxo-quinoline-3-carboxylic acid] | – | 0.12 (≈ 0.298 µM) | – | 0.06 (≈ 0.149 µM) | 2 (≈ 4.97 µM) | 0.06 (≈ 0.149 µM) | 0.25 (≈ 0.621 µM) | – | – | – | – | – | – | –
Nc1cn(C2CCN(c3c(F)c(N)c4c(=O)c(C(=O)O)cn(C5CC5)c4c3F)C2)nn1 (stereo not shown) [Example 41, 5-Amino-1-cyclopropyl-6,8-difluoro-7-(3-(4-amino-1,2,3-triazol-1-yl)-pyrrolidin-1-yl)-1,4-dihydro-4-oxo-quinoline-3-carboxylic acid] | – | – | – | 0.12 (≈ 0.278 µM) | – | 0.03 (≈ 0.0695 µM) | – | – | – | – | – | – | – | –
